target: B-Raf(V599E) kinase (Homo sapiens, UniProt P15056, V600E); assay: B-Raf(V599E) kinase assay B1 (construct 1, MEK1 substrate, coupled spectrophotometric); assay type: biochemical; details: not given
Protocol: The test compounds were incubated with the reaction mixtureat 30° C. for 2 h. […] The reaction rate was calculated using the […] time frame. […] IC50 values were calculated from a series of percent inhibition values determined at a range of inhibitor concentrations using software routines as implemented in the GraphPad Prism software package.

Chain of B-Raf(V599E) kinase (P15056 with tags, fused parts or gaps V600E): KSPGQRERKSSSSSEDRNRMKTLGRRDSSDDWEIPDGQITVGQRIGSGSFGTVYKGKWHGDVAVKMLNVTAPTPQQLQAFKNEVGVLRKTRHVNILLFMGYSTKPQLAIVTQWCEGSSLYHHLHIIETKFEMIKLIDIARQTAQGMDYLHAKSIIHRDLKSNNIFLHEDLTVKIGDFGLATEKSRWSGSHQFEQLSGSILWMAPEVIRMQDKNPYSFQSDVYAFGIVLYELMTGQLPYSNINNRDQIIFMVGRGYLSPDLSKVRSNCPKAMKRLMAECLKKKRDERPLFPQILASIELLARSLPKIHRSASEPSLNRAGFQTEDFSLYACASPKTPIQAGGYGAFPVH

| SMILES | IC50 [nM] |
| --- | --- |
| CC(C)(C)c1cc(NC(=O)Nc2cccc(F)c2F)n(-c2cc(CC(N)=O)c3ccccc3c2)n1 [Example 90, 1-(1-(4-(2-amino-2-oxoethyl)naphthalen-2-yl)-3-t-butyl-1H-pyrazol-5-yl)-3-(2,3-difluorophenyl)urea] | 3.9 |
| CC(C)(C)c1cc(NC(=O)Nc2ccc(Cl)cc2)n(-c2ccc3c(c2)C(=O)NCC3)n1 [Example 309, 1-[3-t-butyl-1-(1-oxo-1,2,3,4-tetrahydroiso-quinolin-7-yl)-1H-pyrazol-5-yl]-3-(4-chlorophenyl)urea] | 249 |
| CC(C)(C)c1cc(NC(=O)Nc2cccc(F)c2F)n(-c2ccc3c(c2)CCN(S(C)(=O)=O)C3)n1 [Example 328, 1-(3-t-butyl-1-(2-(methylsulfonyl)-1,2,3,4-tetrahydroisoquinolin-6-yl)-1H-pyrazol-5-yl)-3-(2,3-difluorophenyl)urea] | 25 |
| CC(C)(C)c1cc(NC(=O)Nc2cccc(F)c2F)n(-c2ccc3c(c2)CCC(=O)N3)n1 [Example 320, 1-(3-t-butyl-1-(2-oxo-1,2,3,4-tetrahydro-quinolin-6-yl)-1H-pyrazol-5-yl)-3-(2,3-difluorophenyl)urea] | 4.6 |
| C[C@H](NC(=O)Nc1cc(C(C)(C)C)nn1-c1cccc(C#N)c1)c1ccccc1 [Example 211, 1-[3-t-butyl-1-(3-cyanophenyl)-1H-pyrazol-5-yl]-3-((S)-1-phenylethyl)urea] | 785 |
| CC(C)(C)c1cc(NC(=O)Nc2cccc(Oc3ccccc3)c2)n(-c2ccc3c(c2)CCC(=O)N3)n1 [Example 325, 1-(3-t-butyl-1-(2-oxo-1,2,3,4-tetrahydro-quinolin-6-yl)-1H-pyrazol-5-yl)-3-(3-phenoxyphenyl)urea] | 4.5 |
| CC(C)(C)c1cc(NC(=O)Nc2cccc(Cl)c2Cl)n(-c2cccc(CC(=O)N3CC[C@@H](O)C3)c2)n1 [Example 443, 1-(3-t-butyl-1-(3-(2-((R)-3-hydroxypyrrolidin-1-yl)-2-oxoethyl)phenyl)-1H-pyrazol-5-yl)-3-(2,3-dichlorophenyl)urea] | 9 |
| CC(C)(C)c1cc(NC(=O)Nc2ccccc2)n(-c2cc(CN)c3ccccc3c2)n1 [Example 295, 1-[1-(4-(aminomethyl)naphthalen-2-yl)-3-t-butyl-1H-pyrazol-5-yl]-3-phenylurea] | 52 |
| CC(C)(C)c1cc(NC(=O)Nc2cc(F)cc(F)c2)n(-c2ccc3c(c2)CCC(=O)N3)n1 [Example 326, 1-(3-t-butyl-1-(2-oxo-1,2,3,4-tetrahydro-quinolin-6-yl)-1H-pyrazol-5-yl)-3-(3,5-difluorophenyl)urea] | 17 |
| CC(C)(C)c1cc(NC(=O)Nc2ccc(F)cc2)n(-c2cccc(Cn3c(=O)[nH]n(-c4ccccc4)c3=O)c2)n1 [Example 272, 1-(3-t-butyl-1-{3-[(3,5-dioxo-1-phenyl-1,2,4-triazolidin-4-yl)methyl]phenyl}-1H-pyrazol-5-yl)-3-(4-fluorophenyl)urea] | 61 |
| CC(C)(C)c1cc(NC(=O)Nc2cccc(Cl)c2Cl)n(-c2ccc(CC(N)=O)cc2)n1 [Example 492, 1-(1-(4-(2-amino-2-oxoethyl)phenyl)-3-t-butyl-1H-pyrazol-5-yl)-3-(2,3-dichlorophenyl)urea] | 6.4 |
| CC(C)(C)c1cc(NC(=O)Nc2ccc(Cl)cc2)n(-c2cccc(CCN)c2)n1 [Example 255, 1-{1-[3-(2-aminoethyl)phenyl]-3-t-butyl-1H-pyrazol-5-yl}-3-(4-chlorophenyl)urea] | 86 |
| CC(C)(C)c1cc(NC(=O)Nc2ccccc2F)n(-c2cccc(CO)c2)n1 [Example 219, 1-{3-t-butyl-1-[3-(hydroxymethyl)phenyl]-1H-pyrazol-5-yl}-3-(2-fluorophenyl)urea] | 55 |
| CC(C)(C)c1cc(NC(=O)Nc2ccc(Cl)cc2)n(-c2ccc3c(c2)CCC(=O)N3)n1 [Example 315, 1-(3-t-butyl-1-(2-oxo-1,2,3,4-tetrahydro-quinolin-6-yl)-1H-pyrazol-5-yl)-3-(4-chlorophenyl)urea] | 186 |
| CC(C)(C)c1cc(NC(=O)Nc2ccc(F)cc2F)n(-c2ccc3c(c2)CCC(=O)N3)n1 [Example 321, 1-(3-t-butyl-1-(2-oxo-1,2,3,4-tetrahydro-quinolin-6-yl)-1H-pyrazol-5-yl)-3-(2,4-difluorophenyl)urea] | 7.2 |
| CC(C)(C)c1cc(NC(=O)Nc2cc(F)c(F)c(F)c2)n(-c2cc(CC(N)=O)c3ccccc3c2)n1 [Example 92, 1-(1-(4-(2-amino-2-oxoethyl)naphthalen-2-yl)-3-t-butyl-1H-pyrazol-5-yl)-3-(3,4,5-trifluorophenyl)urea] | 8.2 |
| CC(C)(C)c1cc(NC(=O)Nc2cccc(F)c2F)n(-c2ccc3[nH]c(=O)ccc3c2)n1 [Example 329, 1-(3-t-butyl-1-(2-oxo-1,2-dihydroquinolin-6-yl)-1H-pyrazol-5-yl)-3-(2,3-difluorophenyl)urea] | 4.2 |

| SMILES | IC50 [nM] |
| --- | --- |
| CC(C)(C)c1cc(NC(=O)Nc2cccc(Cl)c2Cl)n(-c2ccc(C(=N)NO)cc2)n1 [Example 260, 4-{3-t-butyl-5-[3-(2,3-dichlorophenyl)ureido]pyrazol-1-yl}-N-hydroxybenzamidine] | 4 |
| CC(C)(C)c1cc(NC(=O)Nc2ccccc2F)n(-c2cc(CC(N)=O)c3ccccc3c2)n1 [Example 89, 1-(1-(4-(2-amino-2-oxoethyl)naphthalen-2-yl)-3-t-butyl-1H-pyrazol-5-yl)-3-(2-fluorophenyl)urea] | 5.5 |
| CC(C)(C)c1cc(NC(=O)Nc2cccc(Cl)c2Cl)n(-c2ccc(C(=O)O)cc2)n1 [Example 244, 4-{3-t-butyl-5-[3-(2,3-dichlorophenyl)ureido]-1H-pyrazol-1-yl}benzoic acid] | 38 |
| CC(C)(C)c1cc(NC(=O)NC2CCCCC2)n(-c2cccc(CC(N)=O)c2)n1 [Example 391, 1-{1-[3-(2-amino-2-oxoethyl)phenyl]-3-t-butyl-1H-pyrazol-5-yl}-3-cyclohexylurea] | 37 |
| CC(C)(C)c1cc(NC(=O)Nc2cccc(F)c2F)n(-c2ccc(CO)cc2)n1 [Example 246, 1-{3-t-butyl-1-[4-(hydroxymethyl)phenyl]-1H-pyrazol-5-yl}-3-(2,3-difluoro-phenyl)urea] | 39 |
| CC(C)(C)c1cc(NC(=O)NC2CCCCC2)n(-c2ccc3c(c2)CNCC3)n1 [Example 327, 1-(3-t-butyl-1-(1,2,3,4-tetrahydroisoquinolin-7-yl)-1H-pyrazol-5-yl)-3-cyclohexylurea] | 330 |
| CC(C)(C)c1cc(NC(=O)Nc2cccc(Cl)c2Cl)n(-c2cccc(CC(N)=O)c2)n1 [Example 25, 1-{1-[3-(2-amino-2-oxoethyl)phenyl]-3-t-butyl-1H-pyrazol-5-yl}-3-(2,3-dichlorophenyl)urea] | 3.5 |
| C[C@H](NC(=O)Nc1cc(C(C)(C)C)nn1-c1cccc(CC(N)=O)c1)c1ccccc1 [Example 392, 1-{1-[3-(2-amino-2-oxoethyl)phenyl]-3-t-butyl-1H-pyrazol-5-yl}-3-((S)-1-phenylethyl)urea] | 221 |
| CCOC(=O)c1cc(-n2nc(C(C)(C)C)cc2NC(=O)Nc2ccc(F)cc2F)cc2ccccc12 [Example 289, ethyl 3-(3-t-butyl-5-(3-(2,4-difluorophenyl)ureido)-1H-pyrazol-1-yl)-1-naphthoate] | 28 |
| CC(C(=O)O)c1cccc(-n2nc(C(C)(C)C)cc2NC(=O)Nc2cccc(Cl)c2Cl)c1 (stereo not shown) [Example 248, 2-(3-(3-t-butyl-5-(3-(2,3-dichlorophenyl)ureido)-1H-pyrazol-1-yl)phenyl)propanoic acid] | 8.1 |
| CC(C)(C)c1cc(NC(=O)Nc2ccc3c(c2)OCO3)n(-c2cccc(CC(=O)O)c2)n1 [Example 372, 2-(3-{5-[3-(benzo[1,3]dioxol-5-yl)ureido]-3-t-butyl-1H-pyrazol-1-yl}phenyl)acetic acid] | 27 |
| COC(=O)Cc1cc(-n2nc(C(C)(C)C)cc2NC(=O)Nc2ccccc2)cc2ccccc12 [Example 299, {3-[3-t-butyl-5-(3-phenylureido)pyrazol-1-yl]naphthalen-1-yl}acetic acid methyl ester] | 20 |
| CC(C)(C)c1cc(NC(=O)Nc2cccc(Cl)c2Cl)n(-c2cc(C(=O)O)c3ccccc3c2)n1 [Example 287, 3-{3-t-butyl-5-(3-(2,3-dichlorophenyl)ureido]-1H-pyrazol-1-yl}-1-naphthoic acid] | 41 |
| CC(C)(C)c1cc(NC(=O)Nc2cc(F)cc(F)c2F)n(-c2ccc3[nH]c(=O)ccc3c2)n1 [Example 331] | 3.4 |
| CC(C)(C)c1cc(NC(=O)Nc2cccc(F)c2)n(-c2ccc3c(c2)CCN3)n1 [Example 306, 1-(3-t-butyl-1-(indolin-5-yl)-1H-pyrazol-5-yl)-3-(3-fluorophenyl)urea] | 36 |
| CNCCc1cccc(-n2nc(C(C)(C)C)cc2NC(=O)Nc2cccc(Cl)c2Cl)c1 [Example 258, 1-(3-t-butyl-1-(3-(2-(methylamino)ethyl)phenyl)-1H-pyrazol-5-yl)-3-(2,3-dichlorophenyl)urea] | 3.4 |
| CC(C)(C)c1cc(NC(=O)Nc2cccc(F)c2)n(-c2ccc3c(c2)CCNCC3)n1 [Example 335, 1-(3-t-butyl-1-(2,3,4,5-tetrahydro-1H-benzo[d]azepin-7-yl)-1 H-pyrazol-5-yl)-3-(3-fluorophenyl)urea] | 104 |

same assay, conditions: Method B1; read-out: B-Raf Data

| SMILES | IC50 [nM] |
| --- | --- |
| CC(C)(C)c1cc(NC(=O)Nc2ccc(F)c(F)c2F)n(-c2cccc(CC(N)=O)c2)n1 [Example 435, 1-(1-(3-(2-amino-2-oxoethyl)phenyl)-3-t-butyl-1H-pyrazol 5-yl)-3-(2,3,4-trifluorophenyl)urea] | 7.3 |
| O=C(O)Cc1cccc(-n2nc(-c3cccs3)cc2NC(=O)Nc2cccc(Cl)c2Cl)c1 [Example 366, 2-(3-(5-(3-(2,3-dichlorophenyl)-ureido)-3-(thiophen-2-yl)-1H-pyrazol-1-yl)phenyl)acetic acid] | 157 |
| CC(C)(C)c1cc(NC(=O)Nc2cccc(F)c2F)n(-c2cccc(CC(N)=O)c2)n1 [Example 394, 1-{1-[3-(2-amino-2-oxoethyl)phenyl]-3-t-butyl-1H-pyrazol-5-yl}-3-(2,3-difluorophenyl)urea] | 8.8 |
